Here are results for 16 molecules from PMC6804253, “Predicting and Experimentally Validating Hot-Spot Residues at Protein–Protein Interfaces” (ACS Chemical Biology, 2019).

Like-named read-outs stand apart in the source and are kept apart here. Where a SMILES comes first, the peptide text is derived from it. Where no end group is shown, it is not given here. The star is where a group is joined. 5FAM = O=C1OC2(c3ccc(O)cc3Oc3cc(O)ccc32)c2ccc(C(=O)*)cc21; AEEA = NCCOCCOCC(=O)O

Assay [1] concerns PPIs of the SKEMPI data set (by PDBID). As to conditions: cited from earlier work; for sk_ddG_kJ (SKEMPI experimental ΔΔG of binding, mutation to alanine): single mutation to alanine in the complex of the given PDBID.
Assay [2] shares this test system. As to conditions: Flex_ddG Ref2015, 1 REU = 1 kcal/mol assumed; cited from earlier work.
The test system is the same in assay [3]. As to conditions: Flex_ddG Talaris2014, 1 REU = 1 kcal/mol assumed; cited from earlier work.
The test system is the same in assay [4]. Kind of assay: SKEMPI experimental ΔΔG, single mutations to alanine. The assay is classed as binding. The conditions noted are these: for sk_class (class of the SKEMPI experimental ΔΔG): Positive / Neutral / Negative by ΔΔG threshold 4.184 kJ/mol.
The target of a further assay is T1, SUMO-1 (Homo sapiens, UniProt P63165).
T1 construct: The pet19b His-TEV-SUMO-1 (18-97) construct was over-expressed; His-TEV (N, cleaved yes); made in house; host or cells: E. coli Rosetta 2
In kind it is binding.

In the next assay the target is T2, SHANK-PDZ (Homo sapiens, UniProt Q9Y566).
T2 sequence (Q9Y566 656-762): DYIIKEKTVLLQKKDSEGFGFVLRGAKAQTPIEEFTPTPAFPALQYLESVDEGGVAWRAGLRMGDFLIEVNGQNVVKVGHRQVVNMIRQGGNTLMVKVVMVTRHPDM
As to conditions: for H (fitted ITC data): binding enthalpy from ITC fit; for H (fitted ITC data) / S (fitted ITC data): 20 mM Tris, 150 mM NaCl pH 7.5 at 25 °C; for S (fitted ITC data): binding entropy from ITC fit.

Where [5] appears, read: experimental ΔΔG of single mutation to alanine, SKEMPI database.
Setting [6] is: class of the experimental SKEMPI ΔΔG.
Where [7] appears, read: SKEMPI experimental ΔΔG of binding, single mutation to alanine, complex by PDBID, ref SKEMPI.
[8] abbreviates: class of the SKEMPI experimental ΔΔG, ref SKEMPI.

T1 sequence (P63165 18-97, species assumed): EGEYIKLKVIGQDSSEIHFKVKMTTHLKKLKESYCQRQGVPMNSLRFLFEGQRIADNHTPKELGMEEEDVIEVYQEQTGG

1A22 LA6A: in assay [1] (setting [5]), the sk_ddG_kJ is 0.6 kcal/mol. Moreover, the “sk_ddG_kJ (SKEMPI experimental ΔΔG of binding, mutation to alanine)” value in assay [1] (ref SKEMPI) was 2.51 kJ. For the same molecule, in assay [2], the ref2015_ddG_kJ is -0.184 kcal/mol. The rosetta_ddG_kJ in assay [3] was -0.0669 kcal/mol. The “sk_class (class of the SKEMPI experimental ΔΔG)” value in assay [4] (ref SKEMPI) is reported as “Neutral (neutral (little effect) 4.184 kJ/mol < ΔΔG > −4.184 kJ/mol)”. Moreover, the sk_class result in assay [4] (setting [6]) is on record as “Neutral (neutral (little effect) 4.184 kJ/mol < ΔΔG > −4.184 kJ/mol)”.
Take 1A22 PA5A: the “sk_class (class of SKEMPI experimental ΔΔG)” value in assay [1] (class by ΔΔG threshold 4.184 kJ/mol, ref SKEMPI) is given as “Neutral (neutral (little effect) 4.184 kJ/mol < ΔΔG > −4.184 kJ/mol)”. Besides, in assay [1] (setting [5]), the sk_ddG_kJ was 0.43 kcal/mol. Also, in assay [1] (single mutation to alanine, complex given by PDBID, residue group in r_group, ref SKEMPI), the “sk_ddG_kJ (SKEMPI experimental ΔΔG, mutation to alanine)” value is on record as 1.80 kJ. Also, the ref2015_ddG_kJ in assay [2] was 0.0406 kcal/mol. Moreover, the rosetta_ddG_kJ in assay [3] was 0.146 kcal/mol. Moreover, in assay [4] (setting [6]), the sk_class entry was “Neutral (neutral (little effect) 4.184 kJ/mol < ΔΔG > −4.184 kJ/mol)”.
For the molecule `CC[C@H](C)[C@H](NC(=O)[C@H](C)NC(=O)[C@H](CCC(=O)O)NC(=O)[C@@H](NC(=O)[C@H](CCC(=O)O)NC(=O)[C@H](CC(N)=O)NC(=O)[C@H](CC(=O)O)NC(=O)COCCOCCNC(=O)c1ccc2c(c1)C(=O)OC21c2ccc(O)cc2Oc2cc(O)ccc21)[C@@H](C)CC)C(=O)N[C@H](C(=O)N[C@H](C(=O)N[C@@H](Cc1c[nH]c2ccccc12)C(=O)N[C@@H](CCC(=O)O)C(=O)N[C@@H](CCCCN)C(=O)N[C@@H](CCCCN)C(N)=O)C(C)C)[C@@H](C)CC` [FAM-V2710A SIM] ({5FAM-AEEA}-DNEIEAIIVWEKK-NH2), on SUMO-1, the “Experimental competition (ΔΔG on mutation of the residue to alanine)” value is on record as 4.7 and the “Experimental competition (ΔΔG)” value was determined as 1.12 kcal/mol.
On to 1A22 IA4A, for which, in assay [1] (setting [5]), the sk_ddG_kJ is 0.411 kcal/mol. Also, the “sk_ddG_kJ (SKEMPI experimental ΔΔG of binding, mutation to alanine)” value in assay [1] (ref SKEMPI) was 1.72 kJ. Also, the ref2015_ddG_kJ in assay [2] was -0.201 kcal/mol. For the same molecule, the rosetta_ddG_kJ in assay [3] was -0.124 kcal/mol. Further, the “sk_class (class of the SKEMPI experimental ΔΔG)” value in assay [4] (ref SKEMPI) is “Neutral (neutral (little effect) 4.184 kJ/mol < ΔΔG > −4.184 kJ/mol)”. The sk_class result in assay [4] (setting [6]) is given as “Neutral (neutral (little effect) 4.184 kJ/mol < ΔΔG > −4.184 kJ/mol)”.
Turning to Ac-EAQTRL [GKAP], at SHANK-PDZ, the “H (fitted ITC data)” value is reported as -6.54 ± 0.04 kcal/mol and the “S (fitted ITC data)” value is recorded as 3.49 cal/molK.
Regarding `CC[C@H](C)[C@H](NC(=O)[C@H](CCC(=O)O)NC(=O)[C@H](CC(N)=O)NC(=O)[C@H](CC(=O)O)NC(=O)COCCOCCNC(=O)c1ccc2c(c1)C(=O)OC21c2ccc(O)cc2Oc2cc(O)ccc21)C(=O)N[C@@H](CCC(=O)O)C(=O)N[C@H](C(=O)N[C@H](C(=O)N[C@@H](C)C(=O)N[C@H](C(=O)N[C@@H](Cc1c[nH]c2ccccc12)C(=O)N[C@@H](CCC(=O)O)C(=O)N[C@@H](CCCCN)C(=O)N[C@@H](CCCCN)C(N)=O)C(C)C)[C@@H](C)CC)C(C)C` [FAM-I2712A SIM] ({5FAM-AEEA}-DNEIEVIAVWEKK-NH2), on SUMO-1, the “Experimental competition (ΔΔG on mutation of the residue to alanine)” value was determined as 5.7 and the “Experimental competition (ΔΔG)” value stood at 1.36 kcal/mol.
For `CC[C@H](C)[C@H](NC(=O)[C@H](CCC(=O)O)NC(=O)[C@H](CC(N)=O)NC(=O)[C@H](CC(=O)O)NC(=O)COCCOCCNC(=O)c1ccc2c(c1)C(=O)OC21c2ccc(O)cc2Oc2cc(O)ccc21)C(=O)N[C@@H](CCC(=O)O)C(=O)N[C@H](C(=O)N[C@H](C(=O)N[C@H](C(=O)N[C@H](C(=O)N[C@@H](C)C(=O)N[C@@H](CCC(=O)O)C(=O)N[C@@H](CCCCN)C(=O)N[C@@H](CCCCN)C(N)=O)C(C)C)[C@@H](C)CC)[C@@H](C)CC)C(C)C` [FAM-W2714A SIM] ({5FAM-AEEA}-DNEIEVIIVAEKK-NH2), on SUMO-1, the “Experimental competition (ΔΔG on mutation of the residue to alanine)” value was 8.1 and the “Experimental competition (ΔΔG)” value was found to be 1.94 kcal/mol.
For `CC[C@H](C)[C@H](NC(=O)[C@H](C)NC(=O)[C@H](CC(N)=O)NC(=O)[C@H](CC(=O)O)NC(=O)COCCOCCNC(=O)c1ccc2c(c1)C(=O)OC21c2ccc(O)cc2Oc2cc(O)ccc21)C(=O)N[C@@H](CCC(=O)O)C(=O)N[C@H](C(=O)N[C@H](C(=O)N[C@H](C(=O)N[C@H](C(=O)N[C@@H](Cc1c[nH]c2ccccc12)C(=O)N[C@@H](CCC(=O)O)C(=O)N[C@@H](CCCCN)C(=O)N[C@@H](CCCCN)C(N)=O)C(C)C)[C@@H](C)CC)[C@@H](C)CC)C(C)C` [FAM-E2707A SIM] ({5FAM-AEEA}-DNAIEVIIVWEKK-NH2) the same measures were 1.7 and 0.406 kcal/mol.
In the case of Ac-EAQTRL-NH2 [CO2H-CONH2 GKAP], at SHANK-PDZ, the “Experimental ΔΔG, direct titration” value was 2.72 kcal/mol; the “H (fitted ITC data)” value is reported as -1.57 ± 0.18 kcal/mol; the “S (fitted ITC data)” value was 11.2 cal/molK.

B1: 1DAN KT48A (protein, UniProt P13726 33-251, looked up, variant K48A)
extracellular domain: SGTTNTVAAYNLTWKSTNFKTILEWEPKPVNQVYTVQISTKSGDWKSACFYTTDTECDLTDEIVKDVKQTYLARVFSYPAGNVESTGSAGEPLYENSPEFTPYLETNLGQPTIQSFEQVGTKVNVTVEDERTLVRRNNTFLSLRDVFGKDLIYTLYYWKSSSSGKKTAKTNTNEFLIDVDKGENYCFSVQAVIPSRTVNRKSTDSPVECMGQEKGEFRE
modifications: extracellular domain
As for B1, the sk_ddG_kJ in assay [1] (setting [7]) is listed as 1.76 kJ. Besides, the sk_class entry in assay [4] (setting [8]) is recorded as “Neutral (neutral (little effect) 4.184 kJ/mol < ΔΔG > −4.184 kJ/mol)”.

B2: 1DAN RU131A (protein, UniProt P13726 33-251, looked up, variant R131A)
extracellular domain: SGTTNTVAAYNLTWKSTNFKTILEWEPKPVNQVYTVQISTKSGDWKSKCFYTTDTECDLTDEIVKDVKQTYLARVFSYPAGNVESTGSAGEPLYENSPEFTPYLETNLGQPTIQSFEQVGTKVNVTVEDEATLVRRNNTFLSLRDVFGKDLIYTLYYWKSSSSGKKTAKTNTNEFLIDVDKGENYCFSVQAVIPSRTVNRKSTDSPVECMGQEKGEFRE
modifications: extracellular domain
As to B2, the sk_ddG_kJ in assay [1] (setting [7]) is 0.00 kJ. In addition, the sk_class entry in assay [4] (setting [8]) is recorded as “Neutral (neutral (little effect) 4.184 kJ/mol < ΔΔG > −4.184 kJ/mol)”.

B3: 1DAN EU99A (protein, UniProt P13726 33-251, looked up, variant E99A)
extracellular domain: SGTTNTVAAYNLTWKSTNFKTILEWEPKPVNQVYTVQISTKSGDWKSKCFYTTDTECDLTDEIVKDVKQTYLARVFSYPAGNVESTGSAGEPLYENSPAFTPYLETNLGQPTIQSFEQVGTKVNVTVEDERTLVRRNNTFLSLRDVFGKDLIYTLYYWKSSSSGKKTAKTNTNEFLIDVDKGENYCFSVQAVIPSRTVNRKSTDSPVECMGQEKGEFRE
modifications: extracellular domain
Consider B3, for which the sk_ddG_kJ in assay [1] (setting [7]) is -0.75 kJ. Moreover, in assay [4] (setting [8]), the sk_class entry was “Neutral (neutral (little effect) 4.184 kJ/mol < ΔΔG > −4.184 kJ/mol)”.

B4: 1DAN DT58A (protein, UniProt P13726 33-251, looked up, variant D58A)
extracellular domain: SGTTNTVAAYNLTWKSTNFKTILEWEPKPVNQVYTVQISTKSGDWKSKCFYTTDTECALTDEIVKDVKQTYLARVFSYPAGNVESTGSAGEPLYENSPEFTPYLETNLGQPTIQSFEQVGTKVNVTVEDERTLVRRNNTFLSLRDVFGKDLIYTLYYWKSSSSGKKTAKTNTNEFLIDVDKGENYCFSVQAVIPSRTVNRKSTDSPVECMGQEKGEFRE
modifications: extracellular domain
With B4, the sk_ddG_kJ in assay [1] (setting [7]) is listed as 8.37 kJ. Further, the sk_class entry in assay [4] (setting [8]) is given as “Positive (positive (a hot residue) ΔΔG ≥ 4.184 kJ/mol)”.

B5: 1DAN DU129A (protein, UniProt P13726 33-251, looked up, variant D129A)
extracellular domain: SGTTNTVAAYNLTWKSTNFKTILEWEPKPVNQVYTVQISTKSGDWKSKCFYTTDTECDLTDEIVKDVKQTYLARVFSYPAGNVESTGSAGEPLYENSPEFTPYLETNLGQPTIQSFEQVGTKVNVTVEAERTLVRRNNTFLSLRDVFGKDLIYTLYYWKSSSSGKKTAKTNTNEFLIDVDKGENYCFSVQAVIPSRTVNRKSTDSPVECMGQEKGEFRE
modifications: extracellular domain
B5: the sk_ddG_kJ in assay [1] (setting [7]) is listed as -0.08 kJ. Also, in assay [4] (setting [8]), the sk_class entry was “Neutral (neutral (little effect) 4.184 kJ/mol < ΔΔG > −4.184 kJ/mol)”.

B6: 1DAN EU128A (protein, UniProt P13726 33-251, looked up, variant E128A)
extracellular domain: SGTTNTVAAYNLTWKSTNFKTILEWEPKPVNQVYTVQISTKSGDWKSKCFYTTDTECDLTDEIVKDVKQTYLARVFSYPAGNVESTGSAGEPLYENSPEFTPYLETNLGQPTIQSFEQVGTKVNVTVADERTLVRRNNTFLSLRDVFGKDLIYTLYYWKSSSSGKKTAKTNTNEFLIDVDKGENYCFSVQAVIPSRTVNRKSTDSPVECMGQEKGEFRE
modifications: extracellular domain
As to B6, in assay [1] (setting [7]), the sk_ddG_kJ was 0.38 kJ. For the same molecule, in assay [4] (setting [8]), the sk_class result is on record as “Neutral (neutral (little effect) 4.184 kJ/mol < ΔΔG > −4.184 kJ/mol)”.

B7: 1DAN KU122A (protein, UniProt P13726 33-251, looked up, variant K122A)
extracellular domain: SGTTNTVAAYNLTWKSTNFKTILEWEPKPVNQVYTVQISTKSGDWKSKCFYTTDTECDLTDEIVKDVKQTYLARVFSYPAGNVESTGSAGEPLYENSPEFTPYLETNLGQPTIQSFEQVGTAVNVTVEDERTLVRRNNTFLSLRDVFGKDLIYTLYYWKSSSSGKKTAKTNTNEFLIDVDKGENYCFSVQAVIPSRTVNRKSTDSPVECMGQEKGEFRE
modifications: extracellular domain
For B7, the sk_ddG_kJ in assay [1] (setting [7]) was -0.50 kJ. In addition, the sk_class entry in assay [4] (setting [8]) is recorded as “Neutral (neutral (little effect) 4.184 kJ/mol < ΔΔG > −4.184 kJ/mol)”.
